Experimental data as given in PMC12000251, “Evaluation of the Anti-Inflammatory Effects of Novel Fatty Acid-Binding Protein 4 Inhibitors in Microglia” (Journal of Neuroimmune Pharmacology, 2025).
Where two headings read alike, the source gives them in different places.

Key:
[1] = test system: BV-2 cells; test: MTT assay of BV-2 cell viability; assay type: cell-based, mouse; settings: 24 h; for fold reduction in cell viability: 75 µM and 100 µM of MFP-0012328, 100 µM of the other MFP compounds, range over the compounds; for BV-2 cell viability relative to vehicle control: 2–50 µM, MTT
Experimental: (§1) BV-2 cells were cultured in DMEM/F-12 media supplemented with 10% (v/v) FBS and 1% (v/v) penicillin/streptomycin, and kept at 37 °C in a humidified incubator ([…], 5% CO2) for all studies. Cells with 80% confluency were used for experiments. At 24 h post-seeding, BV-2 cells were treated with either of the MFP compounds (at concentrations detailed below) or vehicle (0.1% (v/v) DMSO) and 1 µg/mL LPS for a period of 24 h. In some experiments (detailed in Results), BV-2 cells were exposed to MFP compounds for 2 h before a 24 h exposure to LPS and MFP compounds, and in some studies, in the presence of FABP4 siRNA using a 24 h treatment that we have previously employed (Low et al. [2021]). In brief, BV-2 cells were washed once 4 h post-seeding with blank DMEM/F-12 media. siRNA complexes (containing FABP4 siRNA, target sequence 5’-[…]-3’ or AllStar Negative Control siRNA, target sequence proprietary) were added dropwise onto the cells. siRNA complexes were prepared by mixing siRNA and HiPerfect transfection reagent together in FBS-free DMEM/F12 media and incubating for 15 min to allow the siRNA complexes to form. The cells were incubated with the siRNA complex for 5 min, after which, DMEM/F12 media containing FBS was added into each well to dilute the siRNA complexes to 5 nM.
To determine the most appropriate and tolerable concentration of MFP compounds in BV-2 cells, an MTT assay was performed. Following treatment with increasing concentrations of MFP compounds for 24 h, BV-2 cells were rinsed once with PBS prior to being incubated with 0.45 mg/mL MTT reagent for 4 h in a 37 °C, 5% CO2 incubator. After that, the MTT reagent was removed and 150 µL of DMSO was added into all wells for 30 min. The plate was then immediately read on a Perkin-Elmer Enspire fluorescence plate reader (Boston, MA) at 540 nm. Background subtraction was performed before the percentage cell viability was calculated and expressed as a ratio of mean absorbance of MFP-treated cells over mean absorbance of vehicle-treated cells.

[2] = target: T1, Recombinantly-expressed human FABP4 (Homo sapiens, UniProt P15090); test: Isothermal titration calorimetry (ITC) binding affinity to FABP4; settings: one-site binding model
T1 construct: made in house
Experimental: A prior fragment screen identified a series of bi-aryl sulfonamides that bound to FABP4. Analogues of this chemical sulfonamide scaffold were then purchased, which led to the identification of the compounds used in this study (MFP-0011462, MFP-0012314, MFP-0012318, and MFP-0012328). Their predicted LogP and tPSA values were calculated in Vortex v2020.1.117658-s (Dotmatics, Boston, MA). The binding affinity of these four compounds was characterised by isothermal titration calorimetry (ITC). ITC was carried out using an iTC200 microcalorimeter (MicroCal, United Kingdom) with a coin shaped sample cell (201.4 μL) with stirring at 1000 rpm at 25°C. Titrations were performed in an ITC buffer (50 mM sodium phosphate, 50 mM NaCl, pH 7.4 with 2% DMSO). Compounds were diluted from concentrated stocks in ITC buffer and loaded into the titration syringe at a concentration of 1 mM, with a final DMSO concentration of 2% (v/v). Recombinantly-expressed human FABP4 was prepared as described previously (Lee et al. [2015a]) in an identical buffer at a protein concentration of 80 μM and placed in the sample cell. A thermal equilibration step at 25°C was followed by an initial 180 s delay step and subsequently an initial 0.2 μL injection. 16 serial injections of the 1 mM compound solution (2 μL each) were made at intervals of 220 s with continuous stirring of the solution in the sample cell. The iTC200 control software was used to operate and acquire raw data as power (microcalories/sec) vs time (min). The data were processed using the Origin 7.0 software (MicroCal) and the binding affinity (KD) was calculated by fitting the data to a one-site binding model.

[3] = test system: LPS-activated BV-2 cells; test: Intracellular ROS (DCF-DA) in LPS-activated BV-2 cells; assay type: cell-based, mouse; settings: 2 h pre-treatment then co-treatment with 1 µg/mL LPS 24 h, vs LPS-only
Experimental: as §1, with “At 24 h post-seeding, BV-2 cells were treated with either of the MFP compounds (at concentrations detailed below) or vehicle (0.1% (v/v) DMSO) and 1 µg/mL LPS for a period of 24 h.” left out
Intracellular ROS in BV-2 cells, following treatment with MFP compounds and LPS, was detected using the widely-used membrane permeable probe, DCF-DA. Post treatment, BV-2 cells were rinsed once with warm HBSS prior to being incubated with 40 µM of DCF-DA for 30 min at 37°C, 5% CO2. The wells were then rinsed again with HBSS before being read on a Perkin-Elmer Enspire plate reader (λex: 488 nm, λem: 535 nm) as we have reported previously (Kagawa et al. [2023]).

[4] = test system: LPS-activated BV-2 cells; test: Extracellular nitrite (Griess assay) from LPS-activated BV-2 cells; assay type: cell-based, mouse; settings: 50 µM, 1 µg/mL LPS 24 h
Experimental: BV-2 cells were cultured in DMEM/F-12 media supplemented with 10% (v/v) FBS and 1% (v/v) penicillin/streptomycin, and kept at 37 °C in a humidified incubator ([…], 5% CO2) for all studies. Cells with 80% confluency were used for experiments. At 24 h post-seeding, BV-2 cells were treated with either of the MFP compounds (at concentrations detailed below) or vehicle (0.1% (v/v) DMSO) and 1 µg/mL LPS for a period of 24 h. In some experiments (detailed in Results), BV-2 cells were exposed to MFP compounds for 2 h before a 24 h exposure to LPS and MFP compounds, and in some studies, in the presence of FABP4 siRNA using a 24 h treatment that we have previously employed (Low et al. [2021]). […]
For measurement of extracellular nitrite concentrations, the Griess assay was performed as per the manufacturer’s protocol (Molecular Probes, Eugene, OR) with minor changes. […] The absorbance of the media samples was measured on a Perkin-Elmer Enspire plate reader at 548 nm, with nitrite concentrations in media samples obtained by back calculating sample absorbance values back to a standard curve prepared through serial dilution of NaNO2 prepared in media.

[5] = test system: BV-2 cells; design: method as in Kagawa et al. [2023]; settings: 50 µM; ref Kagawa et al. [2023]; cited from earlier work
[6] = design: method as in PubChem [2021]; settings: ref PubChem [2021]; cited from earlier work
[7] = 1D 1H NMR aqueous solubility in phosphate buffer; assay type: physicochemical; settings: kinetic from dmso stock, phosphate buffer pH 7.4 in D2O, 0.1% d6-DMSO, 25 °C, range 3.125–100 µM, read-out: Soluble in phosphate buffer up to (concentration)
Experimental: 1D ^1H NMR was employed to determine the solubility limits of the four MFP compounds and BMS309403 in phosphate buffer. This method has been commonly used to determine compound solubility in the drug discovery setting (Devine et al. [2014]; Lee et al. [2015b]; Lin et al. [2009]). A 100 mM of stock solution of each compound was first prepared in d6-DMSO. These stock solutions were then added into phosphate buffer (50 mM sodium phosphate, 25 mM NaCl, 100 µM of DSS, pH 7.4 in D2O) to achieve a final d6-DMSO concentration of 0.1% (v/v) which is equivalent to the DMSO concentration present in BV-2 cell culture experiments. All samples were inspected to note whether visible precipitates were formed. ^1H NMR spectra for all of the samples were acquired using Bruker Avance III 600 MHz spectrometer at 25 °C. Experimental data were acquired using a relaxation delay of 5 s with 128 scans, and water suppression using an excitation sculpting pulse scheme. Mestrelab Research 13.0 software was used to integrate the proton resonances of the compounds. A well-resolved peak (i.e. no overlaps with any other peaks) in the spectrum of each compound was chosen for integration, relative to the DSS peak (at 0 ppm). […] In addition, the chemical shifts of the resonances in the 1D ^1H NMR spectra were monitored.

[8] = target: FABP4; design: method as in Floresta et al. [2017]; settings: ref Floresta et al. [2017]; cited from earlier work
[9] = test system: LPS-activated BV-2 cells; design: method as in Duffy et al. [2017]; settings: 50 µM; ref Duffy et al. [2017]; cited from earlier work
[10] = test system: LPS-activated BV-2 cells; design: method as in Kagawa et al. [2023]; settings: five-fold higher concentration than 10 µM; ref Kagawa et al. [2023]; cited from earlier work
[11] = test system: LPS-activated BV-2 cells; design: method as in Kagawa et al. [2023]; settings: 50 µM; ref Kagawa et al. [2023]; cited from earlier work
[12] = read-out: KD (ITC titration of FABP4, Figure S1)

T1 sequence (P15090 whole entry): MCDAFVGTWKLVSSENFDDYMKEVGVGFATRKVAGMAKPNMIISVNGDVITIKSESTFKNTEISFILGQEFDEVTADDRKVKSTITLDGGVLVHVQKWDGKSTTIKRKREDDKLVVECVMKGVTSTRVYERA

Row | SMILES | fold reduction in cell viability [1] | BV-2 cell viability relative to vehicle control [1] | Kd ([2]; 25°C, pH 7.4, 2% DMSO, read-out: KD against FABP4) | % reduction in intracellular ROS production (mean ± SEM) ([3]; 50 µM) | Kd [2, 12] | % reduction in intracellular ROS production (mean ± SEM) ([3]; 10 µM) | attenuation of LPS-mediated release of nitrite [4] | toxicity to BV-2 cells [5] | LogP [6] | solubility [7] | Ki [8] | reduction in nitrite production [9] | reduction in LPS-mediated TNF-α release [10] | reduction in ROS levels [11]
1 | CNC(=O)c1ccc(S(=O)(=O)Nc2cccc(C(=O)O)c2)cc1 [MFP-0012318] | 0.17–0.27 fold | no significant differences | > 100000 nM | 54 ± 0.09 (****p < 0.0001) % |  |  |  |  |  |  |  |  |  | 
2 | COc1cc(S(=O)(=O)Nc2cccc(C(=O)O)c2)ccc1Cl [MFP-0011462] | 0.17–0.27 fold | no significant differences |  | 46 ± 0.08 (***p < 0.001) % | 694 nM | 49 ± 0.04 (****p < 0.0001) % | 12.2% |  |  |  |  |  |  | 
3 | COc1ccc(S(=O)(=O)Nc2cccc(C(=O)O)c2)cc1Cl [MFP-0012314] | 0.17–0.27 fold | no significant differences |  | 42 ± 0.07 (***p < 0.001) % | 885 nM | 40 ± 0.09 (**p < 0.01) % |  |  |  |  |  |  |  | 
4 | CCc1c(-c2ccccc2)c(-c2ccccc2)nn1-c1ccccc1-c1cccc(OCC(=O)O)c1 [BMS309403, 2-((2'-(5-Ethyl-3,4-diphenyl-1H-pyrazol-1-yl)-[1,1'-biphenyl]-3-yl)oxy)acetic acid] |  |  |  |  |  |  |  | does not exhibit toxicity | 7.2 | ≥ 100 µM | < 2 nM | 26.8% | 29.0% | 36.0%
